Experimental data published in patent US9328060B2, “J-series prostaglandin-ethanolamides as novel therapeutics” (East Carolina University, priority 2013, dated 2016).

Key:
[1] = test system: CHOP10 expression and Caspase-3 cleavage; assay: CHOP10 expression and caspase-3 cleavage (FIGS. 12, 13); type: cell-based
[2] = test system: H-PGDS and L-PGDS; assay: AEA-induced PGD2 and PGJ2 production (FIG. 11); type: cell-based
[3] = test system: COX-2 overexpressing squamous carcinoma cell line JWF2; conditions: JWF2, background section; cited from earlier work
[4] = target: T1, COX-2 (Mus musculus, UniProt Q05769); assay: LC/MS of J-series PG-ethanolamides in culture medium of AEA-treated cells; type: cell-based; conditions: COX-2 overexpressing cells; for J-series PGs identified in AEA-treated cells: FIG. 6C
T1 construct: endogenous in cells; host or cells: JWF2 keratinocytes
T1 sequence (Q05769 18-604): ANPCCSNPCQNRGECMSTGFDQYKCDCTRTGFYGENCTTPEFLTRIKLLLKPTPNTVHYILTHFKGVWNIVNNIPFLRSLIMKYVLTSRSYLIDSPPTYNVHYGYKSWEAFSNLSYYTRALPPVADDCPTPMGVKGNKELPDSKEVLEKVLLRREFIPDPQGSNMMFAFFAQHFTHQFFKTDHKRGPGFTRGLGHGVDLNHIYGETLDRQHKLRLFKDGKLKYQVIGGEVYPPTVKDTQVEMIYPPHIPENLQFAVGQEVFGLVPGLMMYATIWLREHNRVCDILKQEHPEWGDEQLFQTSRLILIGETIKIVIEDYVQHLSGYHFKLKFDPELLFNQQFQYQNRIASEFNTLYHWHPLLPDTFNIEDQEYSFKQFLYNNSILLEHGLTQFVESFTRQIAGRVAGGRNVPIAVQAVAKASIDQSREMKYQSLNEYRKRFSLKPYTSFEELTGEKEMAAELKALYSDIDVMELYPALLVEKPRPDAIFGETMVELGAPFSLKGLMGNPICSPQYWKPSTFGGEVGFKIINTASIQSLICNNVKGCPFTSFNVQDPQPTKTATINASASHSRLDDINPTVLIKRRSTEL
Method: To identify the specific J-series PGs that are produced in AEA-treated cells that overexpress COX-2 we treated the cells with AEA, collected the culture medium and analyzed J-series PGs using LC/MS.
To determine the direct role of COX-2 in AEA-induced ER stress, the requirement of COX-2 for J-series PG-ethanolamide synthesis was assessed. Results are depicted in FIG. 9D.

[5] = test system: D- and J-series PG synthesis; assay: Prostaglandin synthesis in JWF2 cells by ELISA; type: cell-based; conditions: various concentrations of AEA, FIG. 6A
Method: To determine if D- and J-series PGs are synthesized endogenously, JWF2 cells were treated with various concentrations of AEA and prostaglandin synthesis measured using ELISA assays.

[6] = test system: Tumorigenic JWF2 keratinocytes; assay: MTS cell viability, tumorigenic JWF2 keratinocytes; type: cell-based; conditions: various concentrations, FIG. 1
Method: Tumorigenic JWF2 keratinocytes were treated with various concentrations of AEA and cell viability measured using MTS analysis. […] An interesting feature of tumorigenic keratinocytes is that they overexpress COX-2. However, non-tumorigenic keratinocytes contain low basal levels of COX-2. Therefore, the role of COX-2 in the cytotoxicity of AEA was examined.
JWF2 tumorigenic keratinocytes were treated with each of these prostaglandins and cell survival measured in MTS assays.

[7] = test system: non-tumorigenic HaCaT keratinocytes; assay: MTS cell viability, non-tumorigenic HaCaT keratinocytes; type: cell-based; conditions: FIG. 1
[8] = test system: HaCaT keratinocytes; conditions: low basal COX-2, background section; cited from earlier work
[9] = test system: activated caspase-3; assay: Apoptosis (activated caspase-3 staining) with or without COX-2; type: cell-based
Source text: Red staining indicates COX-2 while the green stain indicates activated caspase-3, a hallmark for apoptosis.

[10] = test system: eIF2a phosphorylation; assay: ER stress (eIF2a phosphorylation staining) in HaCaT transfected with COX-2 or empty vector; type: cell-based; conditions: HaCaT transfected with COX-2, relative to empty vector transfected cells, FIG. 2
Method: Since it was determined that AEA-induced cell death required COX-2 we examined whether ER stress also required COX-2. In this experiment we utilized HaCaT keratinocytes which express low basal levels of COX-2. The cells were transfected with an empty vector (pcDNA6.1) or an expression vector containing COX-2. In FIG. 2 the red signal indicates COX-2 expression, green indicates P-eIF2a phosphorylation and the blue stains the nuclear membrane for orientation.

[11] = test system: epidermal tumor; conditions: background section; cited from earlier work
[12] = test system: tumorigenic keratinocytes (Jwf2); assay: Apoptosis in tumorigenic keratinocytes (FIG. 14); type: cell-based; conditions: Jwf2, FIG. 14
[13] = test system: tumor cells; assay: Selective toxicity in tumor cells (FIG. 15); type: cell-based
[14] = test system: tumor cell; assay: Tumor cell death (FIG. 7); type: cell-based; conditions: compared to 15d-PGJ
[15] = test system: Lewis lung adenocarcinoma; conditions: oral administration, background section; cited from earlier work

Cl[Se](Cl)(Cl)Cl [SeCL4]
AEA-induced CHOP10 expression ([1]; FIG. 12): inhibited | AEA-induced Caspase-3 cleavage ([1]; indicator of apoptosis, FIG. 12): inhibited | AEA-induced PGD2 production [2]: reversed | AEA-induced PGJ2 production [2]: reversed

CCCCC/C=C/C=C1/C(=O)C=C[C@@H]1C/C=C\CCCC(=O)O [15-deoxy Δ^12,14 PGJ2, 15-deoxy-Δ^12,14-Prostaglandin J2]
cell death [3]: inducers of cell death

CCCCCC(O)C=CC1C(=O)C=CC1CC=CCCCC(=O)NCCO (stereo not shown) [PGJ-EA]
J-series PGs identified in AEA-treated cells [4]: metabolic products of AEA

CCCCC[C@H](O)/C=C/[C@H]1C(=O)C=C[C@@H]1C/C=C\CCCC(=O)O [PGJ2]
cell death [3]: inducers of cell death

CCCCCC(O)CC=C1C(=O)C=CC1CC=CCCCC(=O)NCCO (stereo not shown) [D12-PGJ-EA]
J-series PGs identified in AEA-treated cells [4]: metabolic products of AEA

CCCCC/C=C\C/C=C\C/C=C\C/C=C\CCCC(=O)NCCO [AEA, arachidonoyl ethanolamide]
D-series PG synthesis [5]: concentration-dependent increase | J-series PG synthesis [5]: concentration-dependent increase | cell viability (MTS absorbance) [6]: concentration-dependent decline in tumor cell viability | cell death [3]: induce cell death | cell viability (MTS absorbance) [7]: did not lead to a loss of viability | cell death [8]: does not induce cell death | apoptosis (activated caspase-3) ([9]; cells with COX-2, FIG. 3): induced apoptosis | apoptosis (activated caspase-3) ([9]; in the absence of COX-2, FIG. 3): did not undergo apoptosis | eIF2a phosphorylation (ER stress) [10]: significant increase in eIF2a phosphorylation

Cc1c(C(=O)c2cccc3ccccc23)c2cccc3c2n1[C@H](CN1CCOCC1)CO3 [WIN-55, 212-2]
epidermal tumor growth [11]: blocked

CCCCC[C@H](O)/C=C/[C@H]1C(=O)C[C@H](O)[C@@H]1C/C=C\CCCC(=O)O [PGD2]
cell death [3]: cytotoxic

CCCCC/C=C/C=C1/C(=O)C=CC1C/C=C\CCCC(=O)NCCO (stereo not shown) [15d-PGJ-EA, 15-deoxy Δ^12,14-prostagladin J2-ethanolamide]
apoptosis [12]: induces apoptosis | toxicity, tumor cell selectivity [13]: selectively toxic in tumor cells | relative abundance among J-series PG-EAs produced [4]: most abundant produced | J-series PGs identified in AEA-treated cells [4]: metabolic products of AEA | tumor cell death [14]: potent inducer of tumor cell death

CCCCC[C@H](O)/C=C/[C@H]1C(=O)C[C@H](O)[C@@H]1C/C=C\CCCC(=O)NCCO [PGD2-EA]
CHOP10 expression ([1]; FIG. 13): increased | Cl-Casp3 expression ([1]; FIG. 13): increased | cell death [3]: cytotoxic

CCCCCc1cc(O)c2c(c1)OC(C)(C)[C@@H]1CCC(C)=C[C@@H]21 [Δ^9-THC, Δ^9-tetrahydrocannabinol]
Lewis lung adenocarcinoma growth [15]: reduce Lewis lung adenocarcinoma growth
